Experimental findings from US20230399319A1, “Acylsulfamide Compound and Pharmaceutical Use Therefor” (Japan Tobacco Inc., priority 2019, published 2023) are described below.

Each structure is given as a SMILES string. Where two headings read alike, the source gives them in different places.

This test addresses NLRP3 inflammasome (Homo sapiens (Human), UniProt Q96P20). Put plainly: Evaluation of NLRP3 inflammasome inhibitory activity (inhibition of IL-1β production in THP1-Null cells, LPS/Nigericin). The note with it: for inhibition at 3 µM: read-out: % inhibition at 3 μM.
Setting [1] is: inhibition of IL-1β production in THP1-Null cells.
Setting [2] is: IL-1β production in THP1-Null cells, PMA/LPS primed, Nigericin 7.5 μmol/L.

NLRP3 inflammasome, sequence (Q96P20 whole entry): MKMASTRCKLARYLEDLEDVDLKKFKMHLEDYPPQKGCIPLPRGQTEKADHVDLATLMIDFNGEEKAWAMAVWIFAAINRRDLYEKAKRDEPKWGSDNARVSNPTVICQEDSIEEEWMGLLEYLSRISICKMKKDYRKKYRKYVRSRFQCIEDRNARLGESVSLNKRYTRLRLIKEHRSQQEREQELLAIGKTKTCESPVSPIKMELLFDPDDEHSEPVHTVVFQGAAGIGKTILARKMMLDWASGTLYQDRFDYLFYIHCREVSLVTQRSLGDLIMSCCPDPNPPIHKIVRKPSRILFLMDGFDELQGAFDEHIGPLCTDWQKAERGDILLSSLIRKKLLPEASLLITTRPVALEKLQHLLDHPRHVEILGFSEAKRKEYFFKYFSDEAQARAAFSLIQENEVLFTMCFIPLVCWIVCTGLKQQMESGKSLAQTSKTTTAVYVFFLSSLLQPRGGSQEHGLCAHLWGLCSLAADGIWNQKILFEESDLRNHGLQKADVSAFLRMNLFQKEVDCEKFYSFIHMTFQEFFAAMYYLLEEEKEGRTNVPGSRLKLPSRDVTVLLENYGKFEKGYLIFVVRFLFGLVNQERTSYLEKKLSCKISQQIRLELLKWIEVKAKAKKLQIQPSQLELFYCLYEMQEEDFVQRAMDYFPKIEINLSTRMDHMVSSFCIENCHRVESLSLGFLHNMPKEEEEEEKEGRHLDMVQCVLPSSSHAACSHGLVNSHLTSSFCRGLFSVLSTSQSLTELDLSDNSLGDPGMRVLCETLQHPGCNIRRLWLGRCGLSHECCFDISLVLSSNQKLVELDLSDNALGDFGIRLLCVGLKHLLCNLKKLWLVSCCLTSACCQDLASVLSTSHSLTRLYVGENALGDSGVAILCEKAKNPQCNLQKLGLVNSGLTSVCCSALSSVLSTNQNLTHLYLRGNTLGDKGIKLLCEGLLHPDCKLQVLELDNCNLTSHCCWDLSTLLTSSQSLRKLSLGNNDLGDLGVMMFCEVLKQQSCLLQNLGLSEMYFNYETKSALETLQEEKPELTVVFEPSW
Description: The NLRP3 inflammasome inhibitory activity of test compounds were evaluated CM the basis of the inhibitory activity of the IL-1β, production in THP1-Null cells (Product Number: thp-null, InvivoGen).
A solution containing a test compound (20 μL/well) was added to test compound-setting wells. […] The supernatant of the culture was cryonically stored (set at −20° C.) until measurement of IL-1β.
The amount of IL-1β in the culture supernatant was quantitated with AlphaLISA IL1 beta kit (Product Number: AL220C, Perkin Elmer). […] Inhibition rates of the test compound-setting wells were calculated on the basis of 100% for the blank-setting wells and 0% for the control-setting wells.

The IC50 is the midpoint of a concentration-inhibition curve. Read a high IC50 as a need for much substance. With `O=C(NS(=O)(=O)N1CCC(O)C1)c1coc(Nc2c3c(c(Cl)c4c2CCC4)CCC3)n1` (racemic) [Example 41], the IC50 is 77 nM. In turn, `COC1COCCN(S(=O)(=O)NC(=O)c2coc(Nc3cc(C(F)F)ccc3C)n2)C1` (racemic) [Example 2-331] came in with a half-maximal inhibitory concentration (IC50) of 59 nM. The molecule `Cc1ccc(S(F)(F)(F)(F)F)cc1Nc1nc(C(=O)NS(=O)(=O)N(C)C)co1` [Example 2-034] showed an IC50 under setting [1] of 100 nM. `CCCCS(=O)(=O)N1CCCN(S(=O)(=O)NC(=O)c2coc(Nc3cc(C(F)(F)F)ccc3C)n2)CC1` [Example 2-126] yielded a half-maximal inhibitory concentration (IC50) under setting [1] of 10 nM.

For the molecule `CC(=O)NC1CCN(S(=O)(=O)NC(=O)c2coc(Nc3cc(C(F)(F)F)ccc3C)n2)CC1` [Example 2-033], the IC50 under setting [1] is 150 nM. For the molecule `CCCS(=O)(=O)N1CCCN(S(=O)(=O)NC(=O)c2coc(Nc3cc(C(F)F)ccc3C(C)C)n2)CC1` [Example 2-224], the IC50 under setting [1] stood at 27 nM. With `Cc1ccc(C(F)(F)F)cc1Nc1nc(C(=O)NS(=O)(=O)NC2CCOCC2)co1` [Example 2-037], half-maximal inhibition under setting [1] (IC50) was put at 2700 nM. `CCCCS(=O)(=O)N1CCN(S(=O)(=O)NC(=O)c2coc(Nc3cc(C(F)(F)F)ccc3C)n2)CC(OC)C1` (racemic) [Example 2-204] returned a 50% inhibitory concentration (IC50) of 29 nM. In turn, `Cc1ccc(C(F)(F)F)cc1Nc1nc(C(=O)NS(=O)(=O)N2CCCN(S(=O)(=O)C3CCOC3)CC2)co1` (racemic) [Example 2-220] returned a 50% inhibitory concentration (IC50) of 67 nM. `CCC1COCCN1S(=O)(=O)NC(=O)c1coc(Nc2cc(C(C)C)ccc2C)n1` (racemic) [Example 2-082] showed an IC50 of 160 nM. With `Cc1ccc(C(F)(F)F)cc1Nc1nc(C(=O)NS(=O)(=O)N2CCCOCC2C)co1` (racemic) [Example 2-231], the IC50 amounted to 89 nM. In turn, `CS(=O)(=O)N1CCN(S(=O)(=O)NC(=O)c2coc(Nc3c4c(c(Cl)c5c3CCC5)CCC4)n2)CC1` [Example 55] came in with an IC50 under setting [2] of 160 nM. What is called inhibition is the percentage by which the read-out fell short of the control. Turning to `Cc1cnc(C)c(Nc2nc(C(=O)NS(=O)(=O)N(C)C)co2)n1` [Example 2-086], the inhibition at 3 µM amounted to 17%. As for `CCCS(=O)(=O)N1CCCN(S(=O)(=O)NC(=O)c2coc(Nc3cc(C)c(C)cc3C)n2)CC1` [Example 2-289], it took 46 nM to reach half-maximal inhibition under setting [1] (IC50). With `COCC1CN(S(=O)(=O)NC(=O)c2coc(Nc3c(C(C)C)ccc4c3CCC4)n2)CCO1` (racemic) [Example 2-120], 160 nM corresponded to half-maximal inhibition (IC50). `O=C(NS(=O)(=O)NCc1ccccc1)c1cnc(Nc2c3c(cc4c2CCC4)CCC3)o1` [Example 8]: under setting [2], the IC50 turned out to be 440 nM.

`Cc1ccc(C(F)(F)F)cc1Nc1nc(C(=O)NS(=O)(=O)N2CCCOC(C)C2)co1` (racemic) [Example 2-230] gave an IC50 of 89 nM. As to `CCCN1CCCN(S(=O)(=O)NC(=O)c2coc(Nc3cc(C(F)(F)F)ccc3C)n2)CC1` [Example 2-154], under setting [1], the half-inhibitory concentration (IC50) stood at 230 nM.

In the case of `COC1COCCN(S(=O)(=O)NC(=O)c2coc(Nc3cc(C(F)(F)F)ccc3C(C)C)n2)C1` (racemic) [Example 2-121], half-maximal inhibition (IC50) was put at 35 nM. `CN(C)C(=O)C1CCN(S(=O)(=O)NC(=O)c2coc(Nc3c4c(c(F)c5c3CCC5)CCC4)n2)CC1` [Example 63] displayed an IC50 under setting [2] of 900 nM.

For `COC1COCCN(S(=O)(=O)NC(=O)c2coc(Nc3cc(C(F)(F)F)ccc3C)n2)C1` (single isomer, unassigned) [Example 2-219], under setting [1], the 50% inhibitory concentration (IC50) came to 29 nM. `Cc1ccc(C(F)(F)F)cc1Nc1nc(C(=O)NS(=O)(=O)N2CCOCC2C)co1` (racemic) [Example 2-005] returned an IC50 of 30 nM. Turning to `Cc1cc(Nc2nc(C(=O)NS(=O)(=O)N3CCOC(CS(=O)(=O)C(C)C)CC3)co2)c(C)cc1F` (centres unmarked) [Example 3-004], 26 nM corresponded to half-maximal inhibition under setting [2] (IC50). Molecule `COC1COCCN(S(=O)(=O)NC(=O)c2coc(Nc3cc(C(C)C)ccc3C)n2)C1` (racemic) [Example 2-294] gave a concentration for half-maximal inhibition (IC50) of 37 nM.

`Cc1ccc(C2CC2)cc1Nc1nc(C(=O)NS(=O)(=O)N(C)C)co1` [Example 2-035] yielded an IC50 under setting [1] of 220 nM. Take `Cc1ccc(C(F)(F)F)cc1Nc1nc(C(=O)NS(=O)(=O)N2CCOC(C#N)CC2)co1` (centres unmarked) [Example 2-264]: 38 nM corresponded to half-maximal inhibition under setting [1] (IC50). Consider `CC(C)n1nc2c(c1Nc1nc(C(=O)NS(=O)(=O)N(C)C)co1)CCC2` [Example 2-014], for which, under setting [1], the 50% inhibitory concentration (IC50) was 6000 nM. In the case of `O=C(NS(=O)(=O)N1CCC(F)(F)C1)c1coc(Nc2c3c(c(Cl)c4c2CCC4)CCC3)n1` [Example 49], under setting [2], the IC50 was 270 nM. With `Cc1ccc(C(F)(F)F)nc1Nc1nc(C(=O)NS(=O)(=O)N2CCCOCC2)co1` [Example 2-088], under setting [1], it took 120 nM to reach half-maximal inhibition (IC50).

On to `COC1CCCN(S(=O)(=O)NC(=O)c2coc(Nc3cc(C(F)(F)F)ccc3C)n2)C1` (racemic) [Example 2-159], for which the concentration for half-maximal inhibition (IC50) was found to be 61 nM.

`CCC1CN(S(=O)(=O)NC(=O)c2coc(Nc3cc(C(F)(F)F)ccc3C)n2)CCO1` (racemic) [Example 2-006] had an IC50 of 31 nM. Consider `COCCCc1cc(C)c(Nc2nc(C(=O)NS(=O)(=O)N(C)C)co2)cc1C(C)C` [Example 2-238], for which the inhibition at 3 µM came to 11%. Take `Cc1ccc(C(F)(F)F)cc1Nc1nc(C(=O)NS(=O)(=O)N2CCOC(CO)CC2)co1` (centres unmarked) [Example 2-272]: the midpoint of inhibition under setting [1], the IC50, lay at 27 nM. Molecule `CC(C)c1nn(C(C)C)cc1Nc1nc(C(=O)NS(=O)(=O)N2CCCOCC2)co1` [Example 2-090] yielded an IC50 under setting [1] of 570 nM. `CC(C)c1cn(C(C)C)nc1Nc1nc(C(=O)NS(=O)(=O)N2CCCC2)co1` [Example 2-139]: inhibition under setting [1] was half-maximal at 270 nM (IC50). Turning to `CCOCC1CCN(S(=O)(=O)NC(=O)c2coc(Nc3nn(C(C)C)cc3C)n2)CCO1` (centres unmarked) [Example 2-333], half-maximal inhibition under setting [1] (IC50) was put at 78 nM.

`CCOCC1CCN(S(=O)(=O)NC(=O)c2coc(Nc3cc(C(F)F)ccc3C)n2)CCO1` (centres unmarked) [Example 2-332] had an IC50 under setting [1] of 22 nM. For `CC(=O)N1CCN(S(=O)(=O)NC(=O)c2coc(Nc3c4c(c(Cl)c5c3CCC5)CCC4)n2)CC1` [Example 54], the IC50 under setting [2] was 170 nM. In turn, `Cc1ccc(C(F)(F)F)cc1Nc1nc(C(=O)NS(=O)(=O)N2CCOCC2)cs1` [Example 2-065] had an IC50 under setting [1] of 32 nM.

`Cc1ccc(C(F)(F)F)cc1Nc1nc(C(=O)NS(=O)(=O)N2CCOC(COC(F)F)CC2)co1` (centres unmarked) [Example 2-324] showed an IC50 under setting [1] of 17 nM. Under setting [1], `Cc1ccc2c(c1Nc1nc(C(=O)NS(=O)(=O)N(C)C)cs1)CCC2` [Example 2-083] returned an IC50 of 490 nM.

Turning to `Cc1ccc(C(F)(F)F)cc1Nc1nc(C(=O)NS(=O)(=O)N2CCOC(C(=O)N(C)C)CC2)co1` (centres unmarked) [Example 2-263], under setting [1], the IC50 amounted to 79 nM. Take `CCCCS(=O)(=O)N1CCN(S(=O)(=O)NC(=O)c2coc(Nc3cc(C(F)(F)F)ccc3C)n2)CC(F)C1` (racemic) [Example 2-197]: the half-inhibitory concentration (IC50) turned out to be 17 nM. For the molecule `Cc1ccc(C(F)(F)F)cc1Nc1nc(C(=O)NS(=O)(=O)N2CCCN(c3cnccn3)CC2)co1` [Example 2-245], the 50% inhibitory concentration (IC50) under setting [1] is 73 nM. The molecule `CCN(C)S(=O)(=O)N1CCCN(S(=O)(=O)NC(=O)c2coc(Nc3cc(C(F)(F)F)ccc3C)n2)CC1` [Example 2-129] registered a half-maximal inhibitory concentration (IC50) under setting [1] of 20 nM. Regarding `CO[C@@H]1CCN(S(=O)(=O)NC(=O)c2coc(Nc3c4c(c(Cl)c5c3CCC5)CCC4)n2)C1` [Example 36], the concentration for half-maximal inhibition (IC50) under setting [2] turned out to be 92 nM.

For `CC(C)c1nn2c(c1Nc1nc(C(=O)NS(=O)(=O)N3CCCOCC3)co1)OCCC2C` (centres unmarked) [Example 2-248], the inhibition at 3 µM was 44%. Regarding `CC(C)N(C)S(=O)(=O)NC(=O)c1coc(Nc2c3c(cc4c2CCC4)CCC3)n1` [Example 21], under setting [2], the concentration for half-maximal inhibition (IC50) is 43 nM.

Regarding `CC(=O)NC1CCN(S(=O)(=O)NC(=O)c2coc(Nc3c4c(c(F)c5c3CCC5)CCC4)n2)CC1` [Example 62], under setting [2], the IC50 turned out to be 270 nM. Regarding `CCCS(=O)(=O)N1CCCN(S(=O)(=O)NC(=O)c2coc(Nc3ccccc3C)n2)CC1` [Example 2-269], 350 nM corresponded to half-maximal inhibition under setting [1] (IC50). Molecule `O=C(NS(=O)(=O)N1CCOCC12CCC2)c1cnc(Nc2c3c(cc4c2CCC4)CCC3)o1` [Example 9] returned an IC50 under setting [2] of 210 nM. Molecule `Cc1ccnc(N2CCCN(S(=O)(=O)NC(=O)c3coc(Nc4cc(C(F)(F)F)ccc4C)n3)CC2)n1` [Example 2-211] registered an IC50 under setting [1] of 16 nM. `Cc1ccc(C(F)(F)F)cc1Nc1nc(C(=O)NS(=O)(=O)N2CCOC(C)CC2)co1` (racemic) [Example 2-262] had a half-maximal inhibitory concentration (IC50) of 18 nM.

`Cc1ccc(C(F)(F)F)cc1Nc1nc(C(=O)NS(=O)(=O)N2CCOCC(C)C2)co1` (racemic) [Example 2-092] returned a 50% inhibitory concentration (IC50) of 22 nM. On to `COCC1CCN(S(=O)(=O)NC(=O)c2coc(Nc3cc(C)ccc3C)n2)CCO1` (centres unmarked) [Example 2-299], for which 190 nM corresponded to half-maximal inhibition under setting [1] (IC50).

Consider `CCOC(=O)c1c2c(nn1C)CN(S(=O)(=O)NC(=O)c1coc(Nc3c4c(c(F)c5c3CCC5)CCC4)n1)C2` [Example 67], for which the IC50 under setting [2] came out at 840 nM. `CC(C)c1ccc(C(F)F)cc1Nc1nc(C(=O)NS(=O)(=O)N2CCCOCC2)co1` [Example 2-106]: under setting [1], the IC50 came out at 44 nM. On to `Cc1ccc(C(F)(F)F)cc1Nc1nc(C(=O)NS(=O)(=O)N2CCCOCC2)cs1` [Example 2-066], for which the half-inhibitory concentration (IC50) under setting [1] is under 30 nM. The molecule `Cc1ccc(C(F)(F)F)cc1Nc1nc(C(=O)NS(=O)(=O)N2CCCC(n3cccn3)CC2)co1` (racemic) [Example 2-273] yielded a half-maximal inhibitory concentration (IC50) of 24 nM. Under setting [2], `Cc1ccc(C(F)(F)F)cc1Nc1nc(C(=O)NS(=O)(=O)N2CCOCC2)co1` [Example 70] gave an IC50 of under 30 nM.

As to `CC(C)c1ccc(C(F)(F)F)c(Nc2nc(C(=O)NS(=O)(=O)N3CCCOCC3)co2)c1` [Example 2-176], inhibition under setting [1] was half-maximal at 18000 nM (IC50). Consider `CCCS(=O)(=O)N1CCCN(S(=O)(=O)NC(=O)c2coc(Nc3cc(C(F)F)ccc3C)n2)CC1` [Example 2-270], for which the midpoint of inhibition under setting [1], the IC50, lay at 9.8 nM. For `O=C(NS(=O)(=O)N1CCOCC1)c1coc(Nc2c3c(c(Cl)c4c2CCC4)CCC3)n1` [Example 37], under setting [2], the IC50 is under 30 nM. The molecule `O=C(NS(=O)(=O)N1CCCC1)c1coc(Nc2c3c(cc4c2CCC4)CCC3)n1` [Example 22] yielded an IC50 under setting [2] of under 30 nM. Under setting [1], `CC(C)c1ccc(C(F)F)cc1Nc1nc(C(=O)NS(=O)(=O)N(C)C)co1` [Example 2-105] yielded an IC50 of 86 nM.
